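Cultured in 96-well plates, cells were exposed to test compound for 48 hours across five concentrations. TGI: concentration producing complete growth inhibition.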
What was measured:
Experiment in all cases: growth of human tumour cells (NCI), 48 h
SK-MEL-28 melanoma = system: SK-MEL-28 melanoma
MDA-MB-231 breast = system: MDA-MB-231 breast
SR leukemia = system: SR leukemia
MDA-N = system: MDA-N
EKVX NSCLC = system: EKVX NSCLC
NCI-H23 lung = system: NCI-H23 lung
CCRF-CEM leukemia = system: CCRF-CEM leukemia
MOLT-4 leukemia = system: MOLT-4 leukemia
SK-OV-3 ovarian = system: SK-OV-3 ovarian
UACC-62 melanoma = system: UACC-62 melanoma
HS 578T breast = system: HS 578T breast
NCI/ADR-RES ovarian = system: NCI/ADR-RES ovarian
OVCAR-4 ovarian = system: OVCAR-4 ovarian
ACHN renal = system: ACHN renal
A498 renal = system: A498 renal
M14 melanoma = system: M14 melanoma
COLO 205 colon = system: COLO 205 colon
OVCAR-3 ovarian = system: OVCAR-3 ovarian
NCI-H522 lung = system: NCI-H522 lung
MDA-MB-435 = system: MDA-MB-435
MCF7 breast = system: MCF7 breast
UACC-257 melanoma = system: UACC-257 melanoma
K-562 leukemia = system: K-562 leukemia
HCC-2998 colon = system: HCC-2998 colon
SK-MEL-5 melanoma = system: SK-MEL-5 melanoma
RXF 393 renal = system: RXF 393 renal
PC-3 prostate = system: PC-3 prostate
SK-MEL-2 melanoma = system: SK-MEL-2 melanoma
CAKI-1 renal = system: CAKI-1 renal
SNB-19 CNS = system: SNB-19 CNS
SF-295 CNS = system: SF-295 CNS
HOP-92 NSCLC = system: HOP-92 NSCLC
IGROV1 ovarian = system: IGROV1 ovarian
786-0 renal = system: 786-0 renal
NCI-H460 lung = system: NCI-H460 lung
RPMI-8226 leukemia = system: RPMI-8226 leukemia
OVCAR-5 ovarian = system: OVCAR-5 ovarian
HCT-116 colon = system: HCT-116 colon
SW-620 colon = system: SW-620 colon
U251 CNS = system: U251 CNS
KM12 colon = system: KM12 colon
DU-145 prostate = system: DU-145 prostate
UO-31 renal = system: UO-31 renal
HCT-15 colon = system: HCT-15 colon
HT29 colon = system: HT29 colon
A549 NSCLC = system: A549 NSCLC
MALME-3M melanoma = system: MALME-3M melanoma
HOP-62 NSCLC = system: HOP-62 NSCLC
SF-268 CNS = system: SF-268 CNS
NCI-H226 lung = system: NCI-H226 lung
SF-539 CNS = system: SF-539 CNS
SNB-75 CNS = system: SNB-75 CNS
SN12C renal = system: SN12C renal
BT-549 breast = system: BT-549 breast
LOX IMVI melanoma = system: LOX IMVI melanoma
OVCAR-8 ovarian = system: OVCAR-8 ovarian
TK-10 renal = system: TK-10 renal

COc1ccc(C(=O)NCCC2CN(S(=O)(=O)C(F)(F)F)c3ccccc32)c(OC)c1 (stereo unspecified)
TGI (SK-MEL-28 melanoma): > 100 µM
TGI (MDA-MB-231 breast): > 100 µM
TGI (SR leukemia): > 100 µM
TGI (MDA-N): > 100 µM
TGI (EKVX NSCLC): > 100 µM
TGI (NCI-H23 lung): > 100 µM
TGI (CCRF-CEM leukemia): 70.3 µM
TGI (MOLT-4 leukemia): > 100 µM
TGI (SK-OV-3 ovarian): > 100 µM
TGI (UACC-62 melanoma): 80.1 µM
TGI (HS 578T breast): > 100 µM
TGI (NCI/ADR-RES ovarian): 87.2 µM
TGI (OVCAR-4 ovarian): > 100 µM
TGI (ACHN renal): > 100 µM
TGI (A498 renal): > 100 µM
TGI (M14 melanoma): > 100 µM
TGI (COLO 205 colon): > 100 µM
TGI (OVCAR-3 ovarian): > 100 µM
TGI (NCI-H522 lung): 46.8 µM
TGI (MDA-MB-435): > 100 µM
TGI (MCF7 breast): > 100 µM
TGI (UACC-257 melanoma): > 100 µM
TGI (K-562 leukemia): > 100 µM
TGI (HCC-2998 colon): > 100 µM
TGI (SK-MEL-5 melanoma): 43.6 µM
TGI (RXF 393 renal): > 100 µM
TGI (PC-3 prostate): > 100 µM
TGI (SK-MEL-2 melanoma): > 100 µM
TGI (CAKI-1 renal): > 100 µM
TGI (SNB-19 CNS): > 100 µM
TGI (SF-295 CNS): > 100 µM
TGI (HOP-92 NSCLC): > 100 µM
TGI (IGROV1 ovarian): > 100 µM
TGI (786-0 renal): > 100 µM
TGI (NCI-H460 lung): > 100 µM
TGI (RPMI-8226 leukemia): > 100 µM
TGI (OVCAR-5 ovarian): > 100 µM
TGI (HCT-116 colon): > 100 µM
TGI (SW-620 colon): > 100 µM
TGI (U251 CNS): > 100 µM
TGI (KM12 colon): 71.3 µM
TGI (DU-145 prostate): > 100 µM
TGI (UO-31 renal): > 100 µM
TGI (HCT-15 colon): > 100 µM
TGI (HT29 colon): 73.8 µM
TGI (A549 NSCLC): > 100 µM
TGI (MALME-3M melanoma): 35.3 µM
TGI (HOP-62 NSCLC): > 100 µM

C[C@@]1(Br)C[C@@](C)(Cl)[C@@H](Br)CC1/C=C/Cl (stereo partly specified)
TGI (SK-MEL-28 melanoma): 53.7 µM
TGI (MDA-MB-231 breast): 36.2 µM
TGI (SR leukemia): 41 µM
TGI (MDA-N): 29.7 µM
TGI (NCI-H23 lung): > 100 µM
TGI (SF-268 CNS): 23 µM
TGI (CCRF-CEM leukemia): 27.7 µM
TGI (MOLT-4 leukemia): 33.8 µM
TGI (SK-OV-3 ovarian): 37 µM
TGI (HS 578T breast): 30.6 µM
TGI (NCI/ADR-RES ovarian): 25.8 µM
TGI (NCI-H226 lung): 22.8 µM
TGI (OVCAR-4 ovarian): > 100 µM
TGI (ACHN renal): 32 µM
TGI (SF-539 CNS): 31 µM
TGI (SNB-75 CNS): 25.4 µM
TGI (M14 melanoma): 33.2 µM
TGI (SN12C renal): 28.2 µM
TGI (COLO 205 colon): 29 µM
TGI (OVCAR-3 ovarian): 28.4 µM
TGI (MDA-MB-435): 39.2 µM
TGI (MCF7 breast): 31.7 µM
TGI (UACC-257 melanoma): 37.3 µM
TGI (K-562 leukemia): > 100 µM
TGI (HCC-2998 colon): > 100 µM
TGI (SK-MEL-5 melanoma): 26.4 µM
TGI (PC-3 prostate): 29.3 µM
TGI (BT-549 breast): 36 µM
TGI (LOX IMVI melanoma): 31.4 µM
TGI (SK-MEL-2 melanoma): 33.2 µM
TGI (SNB-19 CNS): 45.3 µM
TGI (SF-295 CNS): 27.4 µM
TGI (IGROV1 ovarian): 86.1 µM
TGI (786-0 renal): 30.2 µM
TGI (NCI-H460 lung): > 100 µM
TGI (RPMI-8226 leukemia): 73.7 µM
TGI (OVCAR-5 ovarian): 29.1 µM
TGI (HCT-116 colon): 22.9 µM
TGI (SW-620 colon): 91.8 µM
TGI (U251 CNS): 42.6 µM
TGI (KM12 colon): 29.6 µM
TGI (OVCAR-8 ovarian): 29.5 µM
TGI (UO-31 renal): 37.4 µM
TGI (HCT-15 colon): > 100 µM
TGI (HT29 colon): 29.6 µM
TGI (TK-10 renal): 38 µM
TGI (A549 NSCLC): 61.7 µM
TGI (HOP-62 NSCLC): 30.7 µM
